Measurements as given in patent US10211534B2, “Sildenafil solutions and methods of making and using same” (priority 2014, dated 2019).
Structures can show the parent of a compound that is named as a salt. Where two headings read alike, the source gives them in different places.

How the values were obtained:
[1] = solubility of sildenafil citrate in EtOH/water mixtures with and without acetone (Example 1); format: physicochemical; settings: Table 1; sildenafil citrate remaining in solution after heating
[2] = spectrophotometric analysis at 228 nm before and after filtration via a 0.22 micron filter (Example 12); format: physicochemical; settings: at 18 mg/ml in 70% ethanol
Method: A UV-VIS Genesys 10S Thermo Scientific spectrophotometer was used for the assay. Samples were placed in a UV Kurette Halbmicro/UV Cuvette semi micro [Cat no: 759150] for reading.
Because the reference describes measurements at μg/ml concentrations, both the filtered and unfiltered 18 mg/ml solutions were diluted to 9 μg/ml and 12.5 μg/ml and measured again.

[3] = cited from earlier work
[4] = tablets or oral suspension; cited from earlier work
[5] = EMEA CHMP Assessment Report For Vizarsin
[6] = Jordanian Pharmaceutical Manufacturing Co.

## CCCc1nn(C)c2c(=O)[nH]c(-c3cc(S(=O)(=O)N4CCN(C)CC4)ccc3OCC)nc12 [sildenafil citrate]
[1]
  Final conc. (After heating): ≤ 35.7 mg/mL
[2]
  solubility as prepared in Example 1: fully soluble
[3]; [5]
  solubility in acetone: insoluble
  solubility in chloroform: insoluble
  solubility in dimethylsulfoxide (DMSO): soluble
  solubility in ethanol: insoluble
  solubility in methanol: soluble
[3]; [6]
  solubility in ethanol: ~1000 µg/mL
  times less soluble in ethanol than in water: about 3.5 times
[4]
  absolute bioavailability: about 41%
